According to patent publication US20240268395A1, “ANTIFUNGAL PROTEIN COMPOSITION” (GEAENZYMES CO., priority 2019, published 2024):
Ends that are not written are not given here.

What was measured:
Aspergillus niger = assay: Agar dilution assay, inhibition of mycelial growth from spores; type: cell-based; conditions: fused to carrier solubility protein
Source text: FIG. 8. Agar dilution assay to assess the antifungal activity of the peptide-protein fusion SEQ ID NO: 1-MBP against Aspergillus niger. Left, representative images of agar dilution assays performed with serial dilutions of antifungal peptide-MBP fusions added to agar before solidification. Assays tested for the inhibition of mycelial growth from A. niger spores. Protein storage buffer was used as a negative control for growth inhibition, and Zeocin was used as positive control. Right, IC50 values for the peptide-protein fusion SEQ ID NO: 1-MBP. Aggregated results from up to three independent experiments were used to interpolate IC50 from the fitted curve.
FIGS. 9A-9B. Agar dilution assay comparing the antifungal activity of the peptide-protein fusions SEQ ID NO: 28-MBP and SEQ ID NO: 29-MBP against Aspergillus niger. FIG. 9A: Representative images of agar dilution assays performed with serial dilutions of antifungal peptide-MBP fusions added to agar before solidification. Assays tested for the inhibition of mycelial growth from A. niger spores. […]
To further test the versatility of antifungal peptides, these were genetically fused to a variety of different carrier solubility proteins, and their antifungal activity tested. […] Mycelium length was then estimated and analyzed (FIGS. 3, 4, and 5). […]

[1] = tested on: Trichoderma reesei, Fusarium oxysporum, Rhizopus oligosporum, Aspergillus niger and two environmental isolates; assay: Fungal inhibition in agar plates containing embedded antifungal peptides; type: cell-based; conditions: 150 μg/ml, without carrier protein
Experimental: FIG. 1. Fungal inhibition in agar plates containing a composition comprising Antifungal Peptide SEQ ID NO: 1 after 2 days at 30° C. Fungal strains inoculated in the plate: 1: Trichoderma reesei; 2: Fusarium oxysporum; 3: Rhizopus oligosporum; 4: household environmental isolated; 5: Aspergillus niger; 6: bread contamination environmental isolate. Panel A: 150 μg/ml of peptidic antifungal composition with six histidine amino-terminal residues. Panel B: 150 μg/ml of peptidic antifungal composition with six histidine amino-terminal residues pre-treated for 10 minutes at 90° C. Panel C: 175 μg/ml of peptidic antifungal composition fused to a carrier protein. Panel D: negative control without peptidic antifungal composition.
Antifungal peptide having an amino acid sequence as set forth in SEQ ID NO: 1 (Table 1) was genetically fused to 6 amino-terminal histidine residues, expressed and produced in a recombinant manner in Escherichia coli, and after cell lysis, peptide purified using immobilized metal affinity chromatography (IMAC) with nickel resin. A second variant of antifungal peptide having an amino acid sequence as set forth in SEQ ID NO: 1 was also generated, fusing the antifungal peptide to a carrier protein. […] Fungal inhibition was then assessed in agar plates containing embedded antifungal peptides, incubating 2 days at 30° C. […]

Sequence	potency at sub-MIC concentrations (reflected in the IC50), comparison of the three peptides (Aspergillus niger)	fungal growth in agar plates compared with control ([1]; six histidine amino-terminal residues, 2 days at 30° C.)	activity after pre-incubation at 90° C. (thermostability) ([1]; pre-treated for 10 minutes at 90° C.)
KRCGSQAGCPNGHCCSQYGFCGFGPEYCGRG [SEQ ID NO: 29]	highest potency	–	–
VGECVRGRCPSGMCCSQFGYCGKGPKYCGR (not fully specified (N-terminus); cysteine pairing not given here) [SEQ ID NO: 1, tested genetically fused to 6 amino-terminal histidine residues, produced recombinantly in Escherichia coli]	–	impacts the growth of all fungi when compared with the control condition, although to a lesser extent with the environmental fungal isolates	does not impair its activity
